Results: patent US20060275170A1, “Method for terminal sterilization of transdermal delivery devices” (priority 2005, published 2006)
Entries after “also recorded” stand apart in the source; their conditions may differ.

Experiments:
Type in all cases: physicochemical
[1] = Example 1: purity and degradation products of hPTH(1-34) coated microprojection arrays after gamma or e-beam irradiation (RP-HPLC and SEC-HPLC)
Procedure: Validation reverse-phase and size-exclusion high pressure liquid chromatography (RP-HPLC and SEC-HPLC, respectively) were used to quantify PTH oxidation resulting from exposure to the sterilizing radiation. Formulations of hPTH(1-34) were prepared, comprising 20% w/w HPTH, 20% sucrose, 0.2% polysorbate 20 and 0.03% EDTA. The PTH formulations were coated onto microprojection arrays, which were then enclosed in glass vials. The coated arrays were irradiated with 7, 14 or 21 kGy radiation doses, from either gamma radiation or e-beam, under dry ice or an ambient temperature. […] Tables 1 and 2 give the data corresponding to the purity and degradation products for gamma radiation and e-beam, respectively.

[2] = Example 2: purity and oxidation of coated hPTH after gamma irradiation or ethylene oxide sterilization; packaging and antioxidants varied (RP-HPLC, SEC-HPLC); details: for degradation: glass vial
Procedure: Formulations of hPTH(1-34) were prepared as set forth in Example 1, and coated on microprojection arrays. In addition to the standard 1:1 sucrose:hPTH formulations discussed above, the effect of antioxidants was assessed by adding to selected samples 5% w/w methionine or 3.3% w/w ascorbic acid. The coated arrays were placed in nitrogen purged heat-sealed foil pouches or glass vials. Also, one of the samples was subjected to ethylene oxide sterilization as a comparison. The remaining samples were subjected to dose of gamma radiation of either 7, 14 or 21 kGy under dry ice or an ambient temperature. As discussed above, the purity and degradation of the PTH formulations was assessed using RP-HPLC and SEC-HPLC.

[3] = Example 4: purity of coated hPTH(1-34) after 15 kGy gamma or e-beam; desiccant, temperature and sucrose content varied (RP-HPLC, SEC-HPLC)
Procedure: In this example, formulations of hPTH(1-34) were prepared, comprising 20% w/w HPTH, 20% sucrose or 40% sucrose, 0.2% polysorbate 20 and 0.03% EDTA. The arrays were assembled with a polycarbonate retainer ring and an adhesive. The arrays were sealed in foil pouches purged with nitrogen. Certain samples included a 4 Å molecular seive desiccant. The arrays were exposed to 15 kGy of gamma or e-beam radiation at under dry ice, 2-8° C. or an ambient temperature. As discussed above, the purity and degradation of the PTH formulations was assessed using RP-HPLC and SEC-HPLC.

[4] = Example 3: purity and oxidation of coated hPTH(1-34) after gamma irradiation; packaging, purge gas and temperature varied (RP-HPLC, SEC-HPLC)
Procedure: Formulations of hPTH(1-34) were prepared as set forth in Example 1, and coated on microprojection arrays. Certain arrays were assembled with a polycarbonate retainer ring and an adhesive. The arrays were sealed in foil pouches purged with nitrogen or ambient air or in glass vials. The arrays were exposed to 14 or 21 kGy of gamma radiation under dry ice or an ambient temperature. As discussed above, the purity and degradation of the PTH formulations was assessed using RP-HPLC and SEC-HPLC.

loss of purity ([1]; 7 kGy under dry ice, compared with other doses and temperatures): least loss of purity
degradation (oxidation) ([1]; 21 kGY dose, particularly at an ambient temperature): less degradation
aggregation following irradiation ([1]; FIG. 6, gamma and e-beam, 7-21 kGy): relatively low
degradation, e-beam sterilization less than gamma radiation ([1]; at the high radiation doses): 5-10%
purity of PTH relative to a control formulation ([1]; gamma radiation and e-beam exposure, FIG. 5): decreased
deamidated products ([1]; irradiated formulations versus control formulation): comparable to the control formulation
deamidation and aggregation degradation products ([2]; FIG. 8): not prominent
morphology ([2]; ethylene oxide sterilized sample): altered substantially
degradation ([2]; gamma 21 kGy, ambient temperature, FIG. 8): severe
oxidation ([2]; gamma irradiated samples packaged in nitrogen purged foil pouches): minimal oxidation
purity of hPTH ([2]; gamma radiation, samples other than 21 kGy glass vial ambient (foil pouch, dry ice, 7 or 14 kGy), FIG. 7): comparable to that of the controls
impact of amount of sucrose on stability during irradiation ([3]; 1:1 versus 2:1 sucrose:hPTH, gamma or e-beam, FIG. 15): did not have a significant impact
degradation, e-beam sterilization versus gamma irradiation ([3]; 15 kGy, same temperature, FIG. 13): less degradation
degradation ([3]; sample without a desiccant, 15 kGy, FIG. 13): most degradation
stability following irradiation ([4]; arrays with polycarbonate retainer ring and acrylate adhesive, nitrogen purged foil pouch, 14 and 21 kGy, dry ice, FIG. 12): adequate stability
oxidation ([4]; gamma 14 kGy, foil pouch sealed with ambient air, dry ice and ambient temperature, FIG. 11): major oxidation
purity ([4]; gamma 14 kGy, nitrogen purged foil pouch, dry ice and ambient temperature, FIG. 11): comparable to the controls
increase in oxidation ([4]; gamma 21 kGy, ambient temperature, nitrogen purged foil pouch, FIG. 10): approximately 2%
oxidation ([4]; gamma 21 kGy, ambient temperature, nitrogen purged glass vial, FIG. 10): approximately 40%
increase in overall oxidation ([4]; gamma 21 kGy, nitrogen purged foil pouch, ambient temperature): less than 4%
increase in overall oxidation ([4]; gamma 21 kGy, nitrogen purged foil pouch, dry ice): less than 2%
SMILES: CC[C@H](C)[C@H](NC(=O)[C@H](CCC(=O)O)NC(=O)[C@H](CO)NC(=O)[C@@H](NC(=O)[C@@H](N)CO)C(C)C)C(=O)N[C@@H](CCC(N)=O)C(=O)N[C@@H](CC(C)C)C(=O)N[C@@H](CCSC)C(=O)N[C@@H](Cc1cnc[nH]1)C(=O)N[C@@H](CC(N)=O)C(=O)N[C@@H](CC(C)C)C(=O)NCC(=O)N[C@@H](CCCCN)C(=O)N[C@@H](Cc1cnc[nH]1)C(=O)N[C@@H](CC(C)C)C(=O)N[C@@H](CC(N)=O)C(=O)N[C@@H](CO)C(=O)N[C@@H](CCSC)C(=O)N[C@@H](CCC(=O)O)C(=O)N[C@@H](CCCN=C(N)N)C(=O)N[C@H](C(=O)N[C@@H](CCC(=O)O)C(=O)N[C@@H](Cc1c[nH]c2ccccc12)C(=O)N[C@@H](CC(C)C)C(=O)N[C@@H](CCCN=C(N)N)C(=O)N[C@@H](CCCCN)C(=O)N[C@@H](CCCCN)C(=O)N[C@@H](CC(C)C)C(=O)N[C@@H](CCC(N)=O)C(=O)N[C@@H](CC(=O)O)C(=O)N[C@H](C(=O)N[C@@H](Cc1cnc[nH]1)C(=O)N[C@@H](CC(N)=O)C(=O)N[C@@H](Cc1ccccc1)C(=O)O)C(C)C)C(C)C [hPTH(1-34)]
degradation ([2]; ethylene oxide sterilization): considerable degradation; also recorded: severe
loss in purity relative to the control ([4]; gamma 21 kGy, nitrogen purged foil pouch, FIG. 9): did not suffer a significant loss in purity
